The subject of one assay is Peritoneal macrophage. The assay is described as follows: Antiinflammatory activity in C57BL/6J mouse Peritoneal macrophages assessed as reduction in LPS-induced TNFalpha secretion after 24 hrs. The assay is classed as functional, cell-based.
In assay [1] the test system is Staphylococcus epidermidis. Kind of assay: Antimicrobial activity against Staphylococcus epidermidis ATCC 12228 assessed as reduction in microbial growth after 24 hrs by CLSI based broth microdilution method. The assay is classed as functional, organism-based. Background: Dilution methods test growth across graded concentrations, often in twofold steps.
The next assay has as its system HCT-8. The assay is described as follows: Cytotoxicity against human HCT8 cells assessed as reduction in cell viability after 24 hrs by MTT assay. The format is functional, cell-based.
The target in the next assay is T1, Liver carboxylesterase 1 (Homo sapiens, UniProt P23141).
T1 sequence (P23141 whole entry): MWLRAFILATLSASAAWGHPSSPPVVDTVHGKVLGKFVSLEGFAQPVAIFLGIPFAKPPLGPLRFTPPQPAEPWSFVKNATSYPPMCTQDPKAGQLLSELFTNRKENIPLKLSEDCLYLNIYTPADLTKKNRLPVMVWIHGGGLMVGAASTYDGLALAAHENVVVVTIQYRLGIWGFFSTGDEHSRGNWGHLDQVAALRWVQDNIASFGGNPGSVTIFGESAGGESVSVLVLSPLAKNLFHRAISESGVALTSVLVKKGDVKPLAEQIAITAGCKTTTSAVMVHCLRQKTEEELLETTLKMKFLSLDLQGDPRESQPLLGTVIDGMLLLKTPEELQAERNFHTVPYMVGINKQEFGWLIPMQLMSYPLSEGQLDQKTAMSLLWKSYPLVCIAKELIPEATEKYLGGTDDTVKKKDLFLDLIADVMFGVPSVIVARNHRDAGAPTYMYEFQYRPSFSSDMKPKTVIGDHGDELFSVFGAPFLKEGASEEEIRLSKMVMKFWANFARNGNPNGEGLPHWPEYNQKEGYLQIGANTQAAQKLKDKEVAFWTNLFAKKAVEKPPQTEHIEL
The assay is described as follows: Inhibition of human CE1 using D-luciferin methyl ester as substrate preincubated for 10 mins followed by substrate addition and measured after 10 mins by luminescence assay.

The test system of the next assay is BGC-823. Kind of assay: Cytotoxicity against human BGC823 cells assessed as reduction in cell viability after 24 hrs by MTT assay. The format is functional, cell-based. In general terms: Formazan colour is commonly taken as a measure of viable cells.
The target of a further assay is T2, Cocaine esterase (Homo sapiens, UniProt O00748).
T2 sequence (O00748 whole entry): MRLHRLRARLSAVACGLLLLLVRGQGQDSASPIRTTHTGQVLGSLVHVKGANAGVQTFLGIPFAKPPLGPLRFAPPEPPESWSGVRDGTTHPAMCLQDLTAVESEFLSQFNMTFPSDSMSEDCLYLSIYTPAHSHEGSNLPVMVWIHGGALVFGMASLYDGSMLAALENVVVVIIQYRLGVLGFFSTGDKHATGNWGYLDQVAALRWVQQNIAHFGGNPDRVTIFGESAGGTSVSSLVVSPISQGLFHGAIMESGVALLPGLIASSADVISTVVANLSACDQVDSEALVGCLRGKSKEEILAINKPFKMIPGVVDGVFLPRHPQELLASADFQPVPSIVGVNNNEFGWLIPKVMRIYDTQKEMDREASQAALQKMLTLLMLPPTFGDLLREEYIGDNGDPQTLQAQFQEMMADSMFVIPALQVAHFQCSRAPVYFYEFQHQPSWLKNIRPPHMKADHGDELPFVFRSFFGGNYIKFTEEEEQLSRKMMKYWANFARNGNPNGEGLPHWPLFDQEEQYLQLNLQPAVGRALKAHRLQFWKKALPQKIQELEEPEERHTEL
Kind of assay: Inhibition of human CE2 using fluorescein diacetate as substrate preincubated for 10 mins followed by substrate addition and measured after 10 mins by luminescence assay.

For assay [2], the system named is Mycolicibacterium smegmatis. The assay is described as follows: Antimicrobial activity against Mycobacterium smegmatis MC2155 […] assessed as reduction in microbial growth after 24 hrs by CLSI based broth microdilution method. The assay is classed as functional, organism-based.
Assay [3] has as its target T3, Tyrosine-protein phosphatase non-receptor type 1 (Homo sapiens) (UniProt P18031).
T3 sequence (whole entry): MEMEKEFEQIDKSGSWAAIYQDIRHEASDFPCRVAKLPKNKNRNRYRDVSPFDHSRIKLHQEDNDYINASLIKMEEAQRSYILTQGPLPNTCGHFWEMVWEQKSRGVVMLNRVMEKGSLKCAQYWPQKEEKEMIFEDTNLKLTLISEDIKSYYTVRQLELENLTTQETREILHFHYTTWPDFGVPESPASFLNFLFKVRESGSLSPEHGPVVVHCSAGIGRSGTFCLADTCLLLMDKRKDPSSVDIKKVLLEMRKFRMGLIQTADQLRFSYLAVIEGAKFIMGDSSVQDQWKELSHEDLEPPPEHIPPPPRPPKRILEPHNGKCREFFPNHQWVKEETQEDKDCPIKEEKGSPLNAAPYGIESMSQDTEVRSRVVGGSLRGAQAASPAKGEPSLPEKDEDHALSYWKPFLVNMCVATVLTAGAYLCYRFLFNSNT
Kind of assay: Inhibition of recombinant human GST-tagged PTP1B using para-nitrophenyl phosphate as substrate incubated for 10 mins by spectrophotometric method.

Another assay concerns Escherichia coli. The assay is described as follows: Antimicrobial activity against Escherichia coli ATCC 25922 assessed as reduction in microbial growth after 24 hrs by CLSI based broth microdilution method. The assay is classed as functional, organism-based.
The species named for the next assay is Homo sapiens. Kind of assay: Selectivity ratio of IC50 for inhibition of human CE1 […].
The next assay concerns HepG2. The assay is described as follows: Cytoprotection activity in human HepG2 cells assessed as reduction in acetaminophen-induced cell injury after 48 hrs by MTT assay. The format is functional, cell-based.
Another assay relates to A2780. The assay is described as follows: Cytotoxicity against human A2780 cells assessed as reduction in cell viability after 24 hrs by MTT assay. The assay is classed as functional, cell-based.
In another assay the test system is A549. Kind of assay: Cytotoxicity against human A549 cells assessed as reduction in cell viability after 24 hrs by MTT assay. The format is functional, cell-based.
The test system of a further assay is Staphylococcus aureus. The assay is described as follows: Antimicrobial activity against Staphylococcus aureus ATCC 25923 assessed as reduction in microbial growth after 24 hrs by CLSI based broth microdilution method. The format is functional, organism-based.
Another assay relates to Bel-7402. Kind of assay: Cytotoxicity against human Bel7402 cells assessed as reduction in cell viability after 24 hrs by MTT assay. The format is functional, cell-based.

Calls of active or inactive are those of the source. The calls are words filed in the database; no cut-off is given here.

`COc1cc2cc[n+]3c(c2cc1OC)[C@@](C)(O)c1ccc(OC)c(OC)c1C3`: the outcome (with Peritoneal macrophage; in assay [1]; in the assay on HCT-8; in the assay with BGC-823; in assay [2]; in the assay with Escherichia coli) was inactive. Besides, the result with HepG2, in the assay with A2780, with A549, in the assay with Staphylococcus aureus and in the assay on Bel-7402 was inactive. Moreover, the IC50 (as a rule, the midpoint of a concentration-inhibition curve) against Liver carboxylesterase 1 was above 100 µM; against Cocaine esterase, 4.6 µM. Further, the inhibition entry in assay [3] is “inactive”. Further, in the assay filed under Homo sapiens, the Ratio IC50 was determined as 21.8.

For the compound `COc1cc2ccnc([C@]3(C)OC(=O)c4c3ccc(OC)c4OC)c2cc1OC`, the outcome (in the assay with Peritoneal macrophage; in assay [1]; in the assay with HCT-8; with BGC-823; in assay [2]; with Escherichia coli) was inactive. For the same compound, the outcome in the assay with HepG2, in the assay with A2780, in the assay with A549, in the assay with Staphylococcus aureus and in the assay on Bel-7402 was inactive. Besides, the IC50 against Liver carboxylesterase 1 is above 100 µM; on Cocaine esterase it was 3.5 µM. Besides, the inhibition result in assay [3] is “inactive”. In addition, the Ratio IC50 in the assay listed under Homo sapiens came to 28.9.

Consider `COc1cc2c(cc1OC)C([C@@H](C)c1ccc(OC)c(OC)c1O)=NCC2`, for which the outcome (in the assay on Peritoneal macrophage; in assay [1]; in the assay on HCT-8; with BGC-823; in assay [2]; in the assay with Escherichia coli) was inactive. The outcome in the assay on HepG2, in the assay on A2780, with A549, in the assay with Staphylococcus aureus and with Bel-7402 was inactive. The IC50 against Liver carboxylesterase 1 was above 100 µM; against Cocaine esterase, 8.7 µM. In addition, in assay [3], the inhibition entry was “inactive”. Further, in the assay listed under Homo sapiens, the Ratio IC50 is 11.6.
